{
  "source": "ChEMBL document CHEMBL1152022",
  "about": "“Double-headed molecules based on linear or angular psoralen and -methylene--butyrolactone: a search for non-phototoxic potential antiproliferative compounds” (Bioorg Med Chem Lett, 1993)",
  "assay_type_in_all_cases": "functional, organism-based",
  "key": {"Mus musculus [1]": {"species": "Mus musculus", "assay": "Phototoxicity was evaluated at a concentration of 13.9 mM and a UVA dose of 10 J/cm**2 in mouse ear-swelling test; non-phototoxic"}, "Mus musculus [2]": {"species": "Mus musculus", "assay": "Phototoxicity was evaluated at a concentration of 1.4 mM and with an irradiation dose of 6 J/cm**2 in mouse ear-swelling test; non-phototoxic"}, "Mus musculus [3]": {"species": "Mus musculus", "assay": "Phototoxicity was evaluated at a concentration of 27.7 mM at a UVA dose of 12 J/cm**2 in mouse ear-swelling test; non-phototoxic"}, "Mus musculus [4]": {"species": "Mus musculus", "assay": "Phototoxicity was evaluated at a concentration of 1.4 mM and with an irradiation dose of 6 J/cm**2 in mouse ear-swelling test; induced marked erythema."}},
  "note": "Calls of active or inactive are those of the source. No cut-off for these calls is given here.",
  "data": [
    {"smiles": "C=C1CC(CCCCCCCCCCc2cc3c(ccc4ccc(=O)oc43)o2)OC1=O", "note": "(centres undefined)", "values": [
      {"measurement": "Phototoxicity", "setting": "Mus musculus [1]", "result": "Not toxic"}
    ]},
    {"smiles": "C=C1CC(CCCCCCCCCCOc2c3ccoc3cc3oc(=O)ccc23)OC1=O", "note": "(centres undefined)", "values": [
      {"measurement": "Phototoxicity", "setting": "Mus musculus [2]", "result": "Not toxic"},
      {"measurement": "Phototoxicity", "setting": "Mus musculus [3]", "result": "Not toxic"}
    ]},
    {"smiles": "COc1c2ccoc2cc2oc(=O)ccc12", "values": [
      {"measurement": "Phototoxicity", "setting": "Mus musculus [4]", "result": "Active"}
    ]}
  ]
}
